Reference: patent US6737383B1, “Herbicidal oxadiazolidines” (priority 1999, dated 2004)

Key:
[1] = test system: bamyardgrass; experiment: Test B flood test barnyardgrass; format: in vivo, Echinochloa crus-galli
How it was run: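 Each value is a visual injury score relative to controls, with 10 meaning complete control and 0 no effect. Evaluation took place twelve to sixteen days after the 2-leaf-stage plants were treated and kept in the greenhouse.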

[2] = test system: green foxtail; experiment: Test E green foxtail; format: in vivo, Setaria viridis; details: Preemergence
[3] = test system: blackgrass; experiment: Test E blackgrass; format: in vivo, Alopecurus myosuroides; details: Preemergence
[4] = test system: wild oat; experiment: Test E wild oat; format: in vivo, Avena fatua; details: Preemergence
[5] = test system: winter wheat; experiment: Test E winter wheat; format: in vivo, Triticum aestivum; details: Postemergence
How it was run: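 Postemergence: spray at 1–4 leaf stage, soil 60:40 sandy loam:potting mix; solvent + surfactant formulation; greenhouse 21–28 d; visual injury vs untreated controls.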

[6] = test system: winter wheat; experiment: Test E winter wheat; format: in vivo, Triticum aestivum; details: Preemergence
[7] = test system: giant foxtail; experiment: Test B pre/postemergence giant foxtail; format: in vivo, Setaria faberii
How it was run: (§1)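 Response is a visual 0-to-10 score relative to untreated plants, where 0 means no effect and 10 means complete control, taken twelve to sixteen days after application. Treatments went onto soil at planting and onto foliage of 1- to 4-leaf plants, using a surfactant-containing non-phytotoxic solvent.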

[8] = test system: Italian ryegrass; experiment: Test E Italian ryegrass; format: in vivo, Lolium multiflorum; details: Preemergence
[9] = test system: morningglory; experiment: Test B pre/postemergence morningglory; format: in vivo, Ipomoea hederacea
How it was run: as §1

[10] = test system: winter barley; experiment: Test E winter barley; format: in vivo, Hordeum vulgare; details: Preemergence
[11] = test system: cocklebur; experiment: Test B pre/postemergence cocklebur; format: in vivo, Xanthium strumarium
How it was run: as §1

[12] = Rate 125 g/ha, Pre-emergence, flood test species, scale 0 to 10 where 0 is no effect and 10 is complete control
[13] = Rate 250 g/ha, Pre-emergence, flood-test species, scale 0 to 10, 0 is no effect, 10 is complete control
[14] = Rate 500 g/ha, 0 to 100 scale (0 no effect, 100 complete control)
[15] = Rate 1000 g/ha, 0 to 100 scale, 0 no effect, 100 complete control
[16] = Preemergence, Rate 31 g/ha, visual rating, scale 0 to 10 (0 no effect, 10 complete control)
[17] = Preemergence, Rate 62 g/ha, scale of 0 to 10 where 0 is no effect and 10 is complete control
[18] = Preemergence, Rate 250 g/ha, scale of 0 to 10 where 0 is no effect and 10 is complete control
[19] = Rate 31 g/ha, Postemergence, scale 0 to 10
[20] = Rate 62 g/ha, Postemergence, scale 0 to 10 (0 no effect, 10 complete control)
[21] = Rate 125 g/ha, Postemergence, scale of 0 to 10 where 0 is no effect and 10 is complete control
[22] = Rate 125 g/ha, Preemergence, scale of 0 to 10 where 0 is no effect and 10 is complete control
[23] = Rate 250 g/ha, Postemergence, scale of 0 to 10 where 0 is no effect and 10 is complete control
[24] = Rate 125 g/ha, 0 to 100 scale (0 no effect, 100 complete control)
[25] = Postemergence, Rate 125 g/ha, scale 0 to 10, 0 is no effect, 10 is complete control
[26] = Postemergence, Rate 250 g/ha, scale 0 to 10, 0 is no effect, 10 is complete control
[27] = Preemergence, Rate 62 g/ha, scale 0 to 10 (0 no effect, 10 complete control)
[28] = Preemergence, Rate 500 g/ha, scale of 0 to 10 where 0 is no effect and 10 is complete control
[29] = Rate 62 g/ha, Postemergence, scale of 0 to 10 where 0 is no effect and 10 is complete control
[30] = Rate 500 g/ha, Postemergence, scale 0 to 10, 0 no effect, 10 complete control

CC(C)=CCn1c(=O)on(C(=O)N(c2ccc(F)cc2)C(C)C)c1=O [Compound 288]
Barnyardgrass plant response rating ([1]; Rate 31 g/ha, Pre-emergence section (flood test species), scale 0 to 10): 0 | Barnyardgrass plant response rating ([1]; Rate 62 g/ha, headed Pre-emergence (flood test species), scale 0 to 10 (0 no effect, 10 complete control)): 0 | Barnyardgrass plant response rating [1, 12]: 4 | Barnyardgrass plant response rating [1, 13]: 9 | Green foxtail plant response rating (0 to 100 scale) ([2]; Rate 250 g/ha): 50 | Plant response rating, Green foxtail [2, 14]: 60 | Plant response rating, Green foxtail [2, 15]: 100 | Blackgrass plant response rating (0 to 100 scale) ([3]; Rate 250 g/ha): 50 | Plant response rating, Blackgrass [3, 14]: 50 | Wild oat plant response rating (0 to 100 scale) ([4]; Rate 250 g/ha): 20 | Plant response rating, Wild oat [4, 14]: 30 | Plant response rating, Wild oat [4, 15]: 50 | Plant response rating, Wheat (winter) ([5]; Rate 1000 g/ha, 0 to 100 scale where 0 is no effect and 100 is complete control): 40 | Wheat (winter) plant response rating ([5]; Rate 250 g/ha, 0 to 100 scale where 0 is no effect and 100 is complete control): 35 | Plant response rating, Wheat (winter) ([5]; Rate 500 g/ha, 0 to 100 scale, 0 is no effect, 100 is complete control): 30 | Wheat (winter) plant response rating (0 to 100 scale) ([6]; Rate 250 g/ha): 40 | Plant response rating, Wheat (winter) [6, 14]: 30 | Plant response rating, Wheat (winter) [6, 15]: 55 | Giant foxtail plant response rating [7, 16]: 0 | Giant foxtail plant response rating [7, 17]: 5 | Giant foxtail plant response rating [7, 18]: 10 | Giant foxtail plant response rating [7, 19]: 0 | Giant foxtail plant response rating [7, 20]: 0 | Giant foxtail plant response rating [7, 21]: 0 | Giant foxtail plant response rating [7, 22]: 9 | Plant response rating, Giant foxtail [7, 23]: 0 | I. Ryegrass plant response rating (0 to 100 scale) ([8]; Rate 250 g/ha): 30 | Plant response rating, I. Ryegrass [8, 14]: 50 | Plant response rating, I. Ryegrass [8, 15]: 60 | Morningglory plant response rating [9, 16]: 0 | Morningglory plant response rating [9, 17]: 0 | Morningglory plant response rating [9, 18]: 0 | Morningglory plant response rating [9, 19]: 3 | Morningglory plant response rating [9, 20]: 7 | Morningglory plant response rating [9, 21]: 8 | Morningglory plant response rating [9, 22]: 0 | Plant response rating, Morningglory [9, 23]: 8 | Barley (winter) plant response rating (0 to 100 scale) ([10]; Rate 250 g/ha): 0 | Plant response rating, Barley (winter) [10, 14]: 5 | Plant response rating, Barley (winter) [10, 15]: 10 | Cocklebur plant response rating [11, 16]: 0 | Cocklebur plant response rating [11, 17]: 0 | Cocklebur plant response rating [11, 18]: 0 | Cocklebur plant response rating [11, 19]: 0 | Cocklebur plant response rating [11, 20]: 0 | Cocklebur plant response rating [11, 21]: 0 | Cocklebur plant response rating [11, 22]: 0 | Plant response rating, Cocklebur [11, 23]: 1

CC(C)N(C(=O)n1oc(=O)n(C(C)CCl)c1=O)c1ccc(F)cc1 (centres unmarked) [Compound 367]
Plant response rating, Barnyardgrass (0 to 10 scale, 0 is no effect, 10 is complete control) ([1]; Rate 62 g/ha, flood test species, Pre-emergence, visual evaluation after twelve to sixteen days): 0 | Barnyardgrass plant response rating [1, 12]: 0 | Barnyardgrass plant response rating [1, 13]: 0 | Barnyardgrass plant response rating ([1]; Rate 500 g/ha, Pre-emergence, flood test species, scale 0 to 10 (0 no effect, 10 complete control)): 0 | Plant response rating, Green foxtail [2, 24]: 70 | Plant response rating, Green foxtail ([2]; Rate 250 g/ha, 0 to 100 scale): 50 | Plant response rating, Blackgrass [3, 24]: 60 | Plant response rating, Blackgrass ([3]; Rate 250 g/ha, 0 to 100 scale): 30 | Plant response rating, Wild oat [4, 24]: 55 | Plant response rating, Wild oat ([4]; Rate 250 g/ha, 0 to 100 scale): 50 | Plant response rating, Wheat (winter) ([5]; Rate 125 g/ha, 0 to 100 scale, 0 is no effect, 100 is complete control): 50 | Plant response rating, Wheat (winter) ([5]; Rate 250 g/ha, 0 to 100 scale, 0 is no effect, 100 is complete control): 40 | Plant response rating, Wheat (winter) [6, 24]: 60 | Plant response rating, Wheat (winter) ([6]; Rate 250 g/ha, 0 to 100 scale): 40 | Plant response rating, Giant foxtail [7, 25]: 3 | Plant response rating, Giant foxtail [7, 26]: 8 | Plant response rating, Giant foxtail [7, 27]: 10 | Giant foxtail plant response rating (0 to 10 scale) ([7]; Preemergence, Rate 125 g/ha): 10 | Giant foxtail plant response rating [7, 18]: 10 | Giant foxtail plant response rating [7, 28]: 10 | Giant foxtail plant response rating [7, 29]: 0 | Plant response rating, Giant foxtail [7, 30]: 8 | Plant response rating, I. Ryegrass [8, 24]: 60 | Plant response rating, I. Ryegrass ([8]; Rate 250 g/ha, 0 to 100 scale): 60 | Plant response rating, Morningglory [9, 25]: 5 | Plant response rating, Morningglory [9, 26]: 6 | Plant response rating, Morningglory [9, 27]: 0 | Morningglory plant response rating (0 to 10 scale) ([9]; Preemergence, Rate 125 g/ha): 0 | Morningglory plant response rating [9, 18]: 0 | Morningglory plant response rating [9, 28]: 2 | Morningglory plant response rating [9, 29]: 5 | Plant response rating, Morningglory [9, 30]: 7 | Plant response rating, Barley (winter) [10, 24]: 20 | Plant response rating, Barley (winter) ([10]; Rate 250 g/ha, 0 to 100 scale, 0 no effect, 100 complete control): 30 | Plant response rating, Cocklebur [11, 25]: 0 | Plant response rating, Cocklebur [11, 26]: 0 | Plant response rating, Cocklebur [11, 27]: 0 | Cocklebur plant response rating (0 to 10 scale) ([11]; Preemergence, Rate 125 g/ha): 0 | Cocklebur plant response rating [11, 18]: 0 | Cocklebur plant response rating [11, 29]: 0 | Plant response rating, Cocklebur [11, 30]: 2
